Laboratory results taken from the supplement of paper PMC10307832.

What was measured:
Experiment in all cases: relative viability (nuclei count vs DMSO), 5 days (fraction); higher = more cells survive
[1] = compound: CC1=CC(=CC=C1)NC2=NC(=CS2)C3=CC=NC=C3 + Nc1ncn([C@H]2C[C@H](O)[C@@H](CO)O2)c(=O)n1 [Decitabine] (partner 2 µM)
Summary of the method: (§1)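 Dosing by pin tool came one day after lung cancer cell lines were seeded in 1536-well plates, using either one drug or a fixed anchor-drug dose plus five library-drug doses (not always all listed) in √10 steps. After 5 days, nuclei were counted on 4× images. Relative viability is treated-well nuclei count divided by vehicle-well nuclei count, and values are medians of duplicate plates.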

[2] = compound: CC1=CC(=CC=C1)NC2=NC(=CS2)C3=CC=NC=C3 + CC(=O)Nc1cccc(-n2c(=O)n(C3CC3)c(=O)c3c(Nc4ccc(I)cc4F)n(C)c(=O)c(C)c32)c1 [Trametinib] (partner 0.02 µM)
Summary of the method: as §1

[3] = compound: Cc1ccc(NC(=O)c2ccc(CN3CCN(C)CC3)cc2)cc1Nc1nc(-c2cccnc2)cs1 [Masitinib] + CC1(C)CCC(c2ccc(Cl)cc2)=C(CN2CCN(c3ccc(C(=O)NS(=O)(=O)c4ccc(N[C@H](CCN5CCOCC5)CSc5ccccc5)c(S(=O)(=O)C(F)(F)F)c4)cc3)CC2)C1 [Navitoclax] (partner 0.5 µM)
Summary of the method: as §1

[4] = compound: CC1=CC(=CC=C1)NC2=NC(=CS2)C3=CC=NC=C3 + N=C(N)NC(=N)NCCc1ccccc1 [Phenformin] (partner 250 µM)
Summary of the method: as §1

Cell Line	relative viability ([1]; first compound 0.08 µM)	relative viability ([1]; first compound 0.253 µM)	relative viability ([1]; first compound 0.8 µM)	relative viability ([1]; first compound 2.53 µM)	relative viability ([1]; first compound 8 µM)	relative viability ([2]; first compound 0.08 µM)	relative viability ([2]; first compound 0.253 µM)	relative viability ([2]; first compound 0.8 µM)	relative viability ([2]; first compound 2.53 µM)	relative viability ([2]; first compound 8 µM)	relative viability ([3]; first compound 0.01 µM)	relative viability ([3]; first compound 0.03162 µM)	relative viability ([3]; first compound 0.1 µM)	relative viability ([3]; first compound 0.3162 µM)	relative viability ([3]; first compound 1 µM)	relative viability ([4]; first compound 0.08 µM)	relative viability ([4]; first compound 0.253 µM)	relative viability ([4]; first compound 0.8 µM)	relative viability ([4]; first compound 2.53 µM)	relative viability ([4]; first compound 8 µM)
NCI-H2085	0.479	0.532	0.504	0.452	0.457	0.513	0.376	0.428	0.471	0.426	1.1	1.23	1.33	1.16	1.03	0.709	0.67	0.723	0.676	0.684
NCI-H2347	0.622	0.596	0.53	0.602	0.591	0.289	0.309	0.256	0.29	0.265	0.709	0.764	0.79	0.861	0.764	0.387	0.381		0.397	0.419
NCI-H2170	0.426	0.399	0.437	0.43	0.361	0.945	0.935	0.833	0.86	0.668	0.683	0.486	0.546	0.577	0.559	0.396	0.436	0.431	0.4	0.397
NCI-H1944	0.367	0.426	0.399	0.361	0.389	0.345	0.409	0.39	0.362	0.357		1.02	0.799	1	0.995	0.191	0.187	0.203	0.178	0.198
NCI-H596	0.923	1.02	0.836	0.899	0.91	0.731	0.761	0.575	0.642	0.586	0.876	0.855	0.86	0.894	0.866	0.727	0.789	0.733	0.68	0.669
NCI-H520	0.55	0.468	0.541	0.586	0.61	0.592	0.671	0.757	0.707	0.716	1.21		1.17	1.05	1.08	0.514	0.538	0.651	0.308	0.559
EKVX	0.289	0.397		0.356	0.316	0.29	0.308		0.313	0.319		0.688	0.865	0.577	0.968	0.225	0.212	0.228	0.204	0.215
SK-MES-1	0.37	0.361	0.367	0.373	0.378	0.477	0.5	0.457	0.571	0.423	1.29	1.23	1.24	1.17	0.99	0.626	0.565	0.592	0.656	0.547
EPLC-272H	0.339	0.37	0.348		0.352	0.308	0.271	0.296		0.277	1.08	1.13	1.08	1.23	1.06	0.275	0.224	0.332	0.307	0.294
NCI-H1650	0.384	0.38	0.478	0.408	0.378	0.52	0.319	0.555	0.429	0.333	1.25	0.981	1.15	1.13	1.14	0.419	0.328	0.527	0.344	0.245
NCI-H1395	0.666		0.685	0.677	0.761	0.939		0.964	0.724	0.898	1.25	1.17	1.11	1.1	1.05	0.402	0.422	0.46	0.367	0.407
NCI-H2023	0.239	0.223	0.245	0.203	0.216	0.592	0.617	0.429	0.375	0.179	1.05	0.981	1.12	0.925	0.92	0.41	0.33	0.424	0.423	0.351
NCI-H3122	0.366	0.443	0.449	0.467	0.522	0.204	0.25	0.307	0.321	0.414	1.03	1.04	1.04	1.09	1.04	0.359	0.348	0.364	0.373	0.343
NCI-H1792	0.479	0.384	0.481	0.548	0.449	0.401	0.397	0.379	0.317	0.429	0.563	0.239	0.643	0.65	0.673	0.207	0.36	0.373	0.309	0.252
HCC-78	0.727	0.613	0.614	0.613	0.661	0.505	0.666	0.617	0.563	0.753	0.722	0.822	0.839	0.77	0.763		0.628	0.527	0.631	0.75
LOU-NH91	0.744	0.797	0.728	0.825	0.78	0.704	0.734	0.721	0.754	0.728	0.651	0.653	0.791	0.589	0.673	0.468	0.364	0.63	0.591	0.744
NCI-H322M	0.736	0.703	0.67	0.706	0.691	0.482	0.534	0.509	0.552	0.52	1.18	1.15	1.3	1.22	1.26	0.63	0.726	0.788	0.854	0.797
